Literature values, collected in patent US9943503B1, “Pharmaceutical composition for treating bacterial and viral infections” (priority 2017, dated 2018).

System: common cold
Details: adults; review of evidence

Compound | prevention of the common cold, evidence
C=CCS[S+]([O-])CC=C (centres unmarked) [Allicin] | highly effective
O=C1O[C@H]([C@@H](O)CO)C(O)=C1O [vitamin C, ascorbic acid] | demonstrated benefit
